One assay relates to HIV-1 NL4-3 wt. The assay can be described thus: MT4 cell antiviral assay, NL4-3 wt. In kind it is cell-based. Particulars: Human immunodeficiency virus 1, NL43, 120 h; MT4 cells, 5 days, HIV-induced cytopathic effect.
The next assay deals with HIV-1 V370A. Description: MT4 cell antiviral assay, V370A. Format: cell-based. Particulars: Human immunodeficiency virus 1, MT4, 120 h, read-out: EC50 V370A.
The next assay concerns HIV. The conditions noted are these: cited from earlier work.
The subject of a further assay is HIV-1 (strain IIIB). The assay can be described thus: MT4 cell antiviral assay (as described in the method). In kind it is cell-based. Particulars: Human immunodeficiency virus 1, IIIB, control and standard in every assay, propidium iodide readout, read-out: expected range of IC50 values. The method, then: Antiviral HIV activity and compound-induced cytotoxicity were measured in parallel by means of a propidium iodide based procedure in the human T-cell lymphotropic virus transformed cell line MT4. Aliquots of the test compounds were serially diluted in medium (RPMI 1640, 10% fetal calf serum (FCS), and gentamycin) in 96-well plates (Costar 3598) using a Cetus Pro/Pette. Exponentially growing MT4 cells were harvested and centrifuged at 1000 rpm for 10 min in a Jouan centrifuge (model CR 4 12). Cell pellets were resuspended in fresh medium (RPMI 1640, 20% FCS, 20% IL-2, and gentamycin) to a density of 5×10^5 cells/ml. […]
For propidium iodide readout, 27 μl of 5% Nonidet-40 was added to each well of the incubation plate. […] The plates were analyzed in an automated assay instrument (Screen Machine, Idexx Laboratories). […]
For MTS readout, 20 μl CellTiter 96 AQ One Solution reagent (Promega #G3582) was added to each well. At 75 minutes following the addition of MTS reagent, absobance was read at 492 nm using a Tecan Sunrise 96-well plate reader. […]
For each assay plate, the results (relative fluorescence units, rfU, or OD values) of wells containing uninfected cells or infected cells with no compound were averaged, respectively. […] Percent of cells remaining is determined by the following formula: […]

pEC50, pIC50: −log10 of the molar value. Where a name gives a salt, the structure may show the parent alone.

As to `CC(C)C1=C2C3CCC4[C@@]5(C)CC=C(c6ccc(C(=O)O)cc6)C(C)(C)C5CC[C@@]4(C)[C@]3(C)CC[C@@]2(NC(=O)N(CCN(C)C)Cc2ccc(Cl)cc2)CC1=O` (stereo partly drawn) [Example 7, 4-((3aR,5aR,5bR,11aS)-3a-(3-(4-chlorobenzyl)-3-(2-(dimethylamino)ethyl)ureido)-1-isopropyl-5a,5b,8,8,11a-pentamethyl-2-oxo-3,3a,4,5,5a,5b,6,7,7a,8,11,11a,11b,12,13,13a-hexadecahydro-2H-cyclopenta[a]chrysen-9-yl)benzoic acid], in the assay with HIV-1 NL4-3 wt, the pEC50 is 8.20.
In the case of `CC(C)C1=C2[C@H]3CC[C@@H]4[C@@]5(C)CC=C(C6=CCC(C(=O)O)CC6)C(C)(C)[C@@H]5CC[C@@]4(C)[C@]3(C)CC[C@@]2(NCCN2CCC(S(C)(=O)=O)CC2)CC1=O` (stereo partly drawn) [Example 1, 4-((3aR,5aR,5bR,7aR,11aS,11bR,13aS)-1-Isopropyl-5a,5b,8,8,11a-pentamethyl-3a-((2-(4-(methylsulfonyl)piperidin-1-yl)ethyl)amino)-2-oxo-3,3a,4,5,5a,5b,6,7,7a,8,11,11a,11b,12,13,13a-hexadecahydro-2H-cyclopenta[a]chrysen-9-yl)cyclohex-3-enecarboxylic acid], the values for the pEC50 in the assay on HIV-1 V370A and in the assay with HIV-1 NL4-3 wt were 6.45 and 7.00, respectively.
In the assay on HIV-1 NL4-3 wt, `CC(C)C1=C2C3CCC4[C@@]5(C)CC=C(c6ccc(C(=O)O)cc6)C(C)(C)C5CC[C@@]4(C)[C@]3(C)CC[C@@]2(NC(=O)CN2CCS(=O)(=O)CC2)CC1=O` (stereo partly drawn) [Example 6, 4-((3aR,5aR,5bR,11aS)-3a-(2-(1,1-Dioxidothiomorpholino)acetamido)-1-isopropyl-5a,5b,8,8,11a-pentamethyl-2-oxo-3,3a,4,5,5a,5b,6,7,7a,8,11,11a,11b,12,13,13a-hexadecahydro-2H-cyclopenta[a]chrysen-9-yl)benzoic acid hydrochloride salt] gave a pEC50 of 6.80.
For `C=C(C)[C@@H]1CC[C@]2(C(=O)O)CC[C@]3(C)[C@H](CC[C@@H]4[C@@]5(C)CC[C@H](OC(=O)CC(C)(C)C(=O)O)C(C)(C)[C@@H]5CC[C@]43C)[C@@H]12` [Bevirimat], the “mean reduction of HIV viral load” value with HIV (patients with trough levels >=20 μg/mL and no key baseline Gag polymorphisms at Q369, V370 or T371) is listed as 1.3 log10/mL. The “viral load reduction versus patients without Gag polymorphisms” value in the assay with HIV (users with Gag polymorphisms at Q369, V370 or T371) is listed as “significantly lower load reductions”.
`Cc1cn([C@H]2C[C@H](N=[N+]=[N-])[C@@H](CO)O2)c(=O)[nH]c1=O` [3′-azido-3′-deoxythymidine]: the pIC50 in the assay on HIV-1 (strain IIIB) is 6.92 to 7.40.
On to `CC(C)C1=C2[C@H]3CC[C@@H]4[C@@]5(C)CC=C(c6ccc(C(=O)O)cc6)C(C)(C)[C@@H]5CC[C@@]4(C)[C@]3(C)CC[C@@]2(NCCN2CCS(=O)(=O)CC2)CC1=O` [Example 5, 4-((3aR,5aR,5bR,11aS)-3a-((2-(1,1-Dioxidothiomorpholino)ethyl)amino)-1-isopropyl-5a,5b,8,8,11a-pentamethyl-2-oxo-3,3a,4,5,5a,5b,6,7,7a,8,11,11a,11b,12,13,13a-hexadecahydro-2H-cyclopenta[a]chrysen-9-yl)benzoic acid hydrochloride], for which the negative logarithm of the EC50 (pEC50) with HIV-1 V370A is 6.11; with HIV-1 NL4-3 wt it was 7.52.
In the case of `CC(C)C1=C2C3CCC4[C@@]5(C)CC=C(c6ccc(C(=O)O)cc6)C(C)(C)C5CC[C@@]4(C)[C@]3(C)CC[C@@]2(NC(=O)CN(CCN(C)C)Cc2ccc(Cl)cc2)CC1=O` (stereo partly drawn) [Example 8, 4-((3aR,5aR,5bR,11aS)-3a-(2-((4-chlorobenzyl)(2-(dimethylamino)ethyl)amino)acetamido)-1-isopropyl-5a,5b,8,8,11a-pentamethyl-2-oxo-3,3a, 4,5,5a,5b,6,7,7a,8,11,11a,11b,12,13,13a-hexadecahydro-2H-cyclopenta[a]chrysen-9-yl)benzoic acid], the figures for the pEC50 with HIV-1 V370A and with HIV-1 NL4-3 wt were 8.10 and 8.70, respectively.
As to `CC(C)C1=C2[C@H]3CC[C@@H]4[C@@]5(C)CC=C(C6=CCC(C(=O)O)CC6)C(C)(C)[C@@H]5CC[C@@]4(C)[C@]3(C)CC[C@@]2(NCCN(CCN(C)C)Cc2ccc(Cl)cc2)CC1=O` (stereo partly drawn) [Example 3, 4-((3aR,5aR,5bR,7aR,11aS,11bR,13aS)-3a-((2-((4-Chlorobenzyl)(2-(dimethylamino)ethyl)amino)ethyl)amino)-1-isopropyl-5a,5b,8,8,11a-pentamethyl-2-oxo-3,3a,4,5,5a,5b,6,7,7a,8,11,11a,11b,12,13,13a-hexadecahydro-2H-cyclopenta[a]chrysen-9-yl)cyclohex-3-enecarboxylic acid], the pEC50 is 7.38 in the assay with HIV-1 V370A and 7.96 in the assay with HIV-1 NL4-3 wt.
`CC(C)C1=C2[C@H]3CC[C@@H]4[C@@]5(C)CC=C(C6=CCC(C(=O)O)CC6)C(C)(C)[C@@H]5CC[C@@]4(C)[C@]3(C)CC[C@@]2(NCCN2CCS(=O)(=O)CC2)CC1=O` (stereo partly drawn) [Example 2, 4-((3aR,5aR,5bR,7aR,11aS,11bR,13aS)-3a-((2-(1,1-Dioxidothiomorpholino)ethyl)amino)-1-isopropyl-5a,5b,8,8,11a-pentamethyl-2-oxo-3,3a,4,5,5a,5b,6,7,7a,8,11,11a,11b,12,13,13a-hexadecahydro-2H-cyclopenta[a]chrysen-9-yl)cyclohex-3-enecarboxylic acid]: the pEC50 was 7.74 in the assay on HIV-1 V370A and 8.10 with HIV-1 NL4-3 wt.
The compound `CC(C)C1=C2[C@H]3CC[C@@H]4[C@@]5(C)CC=C(c6ccc(C(=O)O)cc6)C(C)(C)[C@@H]5CC[C@@]4(C)[C@]3(C)CC[C@@]2(NCCN(CCN(C)C)Cc2ccc(Cl)cc2)CC1=O` [Example 4, 4-((3aR,5aR,5bR,7aR,11aS,11bR,13aS)-3a-((2-((4-Chlorobenzyl)(2-(dimethylamino)ethyl)amino)ethyl)amino)-1-isopropyl-5a,5b,8,8,11a-pentamethyl-2-oxo-3,3a,4,5,5a,5b,6,7,7a,8,11,11a,11b,12,13,13a-hexadecahydro-2H-cyclopenta[a]chrysen-9-yl)benzoic acid hydrochloride salt] had a pEC50 in the assay on HIV-1 NL4-3 wt of 7.54.

(Values after patent US20190023733A1, “AMINE DERIVATIVES OF LUPANES WITH HIV MATURATION INHIBITORY ACTIVITY” (priority 2016, published 2019).)
